# Source: patent publication US5190975A, “Indan derivatives used for treating thromboses or asthma” (Tanabe Seiyaku Co., Ltd., priority 1987, dated 1993)
# Tests used:
# [1] = system: arachidonic acid-induced pulmonary embolism; assay: Inhibiting effect on arachidonic acid-induced pulmonary embolism (in vivo); design: species or system ddy-male mice; conditions: Mus musculus; dose required to shorten the recovery time by at least 15% as compared with the control group; oral, 3 hours before arachidonic acid 125 mg/kg, mice
# Procedure: Inhibiting effect on arachidonic acid-induced pulmonary embolism (in vivo):
# A test compound in an aqueous carboxymethylcellulose solution (20 ml/kg) was orally administered to ddy-male mice fasted overnight. Three hours later, arachidonic acid (125 mg/kg) was injected to the tail vein of mice to induce pulmonary embolism, and the recovery time (minute) of locomotive activity of the mice was compared with that of a control group of mice to which a 0.25% aqueous CMC solution was administered instead of the test compound solution. The inhibiting effect of each test compound on arachidonic acid-induced pulmonary embolism was estimated in terms of the dose required to shorten the recovery time by at least 15% as compared with the control group.
# TxA2 = conditions: Thrombosis Research, 35, 379-395, 1984; cited from earlier work
SMILES,ED15 [1],TxA2-antagonistic activity (TxA2)
"O=C(O)COc1ccc(CCNS(=O)(=O)c2ccccc2)cc1 [Control, 4-(2-Benzensulfonylaminoethyl)phenoxyacetic acid]",30 mg/kg,has TxA2 -antagonistic activity
O=C(O)CCNC(=O)Cc1ccc2c(c1)CC(NS(=O)(=O)c1ccc(Cl)cc1)C2 (stereo not shown) [Example 1],0.03 mg/kg,–
O=C(O)CCCNC(=O)Cc1ccc2c(c1)CC(NS(=O)(=O)c1ccc(Cl)cc1)C2 (stereo not shown) [Example 2],0.03 mg/kg,–
